Like-named read-outs stand apart in the source and are kept apart here.

The values that follow come from patent US20230002374A1, “GPR52 MODULATOR COMPOUNDS” (Heptares Therapeutics Limited, priority 2019, published 2023).

The target of this assay is human GPR52 (Homo sapiens, UniProt Q9Y2T5). In words: GPR52 Agonist Functional cAMP Assay.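 As to all read-outs here: HEKf cells transduced with GPR52 BacMam for 24 h, 2000 per well, exposed to compounds 30 min at 37° C with 0.5 mM IBMX, cAMP read by HTRF.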 Conditions: for EC50: pEC50 average, HEKf cells infected with human GPR52 BacMam virus, cAMP HTRF, 30 min at 37° C.
The mark [1] stands for this setting: maximal response normalised to DMSO (0%) and maximal compound 7m (J. Med. Chem., 2014, 57, 5226) response (100%).

Chain of human GPR52 (Q9Y2T5 whole entry): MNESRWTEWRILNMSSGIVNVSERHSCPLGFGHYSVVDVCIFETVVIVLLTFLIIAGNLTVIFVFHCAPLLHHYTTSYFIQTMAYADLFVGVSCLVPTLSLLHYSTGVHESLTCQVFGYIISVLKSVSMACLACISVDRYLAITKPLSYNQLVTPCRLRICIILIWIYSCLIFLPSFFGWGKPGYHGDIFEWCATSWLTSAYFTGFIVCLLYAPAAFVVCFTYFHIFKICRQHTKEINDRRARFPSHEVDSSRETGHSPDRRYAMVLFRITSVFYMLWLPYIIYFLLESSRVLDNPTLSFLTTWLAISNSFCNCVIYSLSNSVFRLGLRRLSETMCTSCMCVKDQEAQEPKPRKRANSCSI
Procedure: Following BacMam infection, cells were pelleted by centrifugation (335 g, 5 min), resuspended in cell freezing medium (Sigma) and frozen at −150° C. until required. On experiment day, 25 nL GPR52 compound dilutions, prepared in DMSO, were stamped onto proxiplates (PerkinElmer) by a LabCyte ECHO acoustic dispenser. Frozen cells were thawed and resuspended in assay stimulation buffer (Cisbio) containing 0.5 mM 3-iso-butyl-1-methylxanthine (IBMX, Sigma) to achieve a density of 2000 cells per well. 10 μl cells were added to assay plates using a Multidrop Combi Reagent Dispenser (ThermoFisher) before centrifugation (335 g, 1 min). Cells were incubated with compounds at 37° C. for 30 min prior to addition of cAMP detection reagents (HiRange cAMP kit, Cisbio) which were prepared according to the manufacturer's instructions. Plates were shaken for 1 h at room temperature before reading on a PHERAstar FS plate reader (BMG Labtech) using standard HTRF settings.

Turning to `O=C1NCCc2c1cnn2-c1ccnc(Cc2cc(Cl)cc(C(F)(F)F)c2)c1` [Example 27, 1-(2-(3-chloro-5-(trifluoromethyl)benzyl)pyridin-4-yl)-1,5,6,7-tetrahydro-4H-pyrazolo[4,3-c]pyridin-4-one], the midpoint of the response, the EC50, lay at 79.4 nM. The same molecule returned an Emax under setting [1] of 90%.

Molecule `Cc1nn(-c2ccnc(Cc3cnc(OC(F)F)c(F)c3)c2)c2c1C(=O)NCC2` [Example 111, 1-(2-((6-(difluoromethoxy)-5-fluoropyridin-3-yl)methyl)pyridin-4-yl)-3-methyl-1,5,6,7-tetrahydro-4H-pyrazolo[4,3-c]pyridin-4-one] showed an EC50 of 63.1 nM. Further, the Emax under setting [1] came out at 87%.

`O=C1NCCc2c1cnn2-c1ccnc(Cc2cc3ccccc3s2)c1` [Example 69, 1-(2-(benzo[b]thiophen-2-ylmethyl)pyridin-4-yl)-1,5,6,7-tetrahydro-4H-pyrazolo[4,3-c]pyridin-4-one] showed a 50% effective concentration (EC50) of 126 nM. Also, under setting [1], the Emax turned out to be 60%.

`O=C1NCCOc2c1cnn2-c1cc(Cc2cccc(C(F)(F)F)c2)ccn1` [Example 13, 1-(4-(3-(trifluoromethyl)benzyl)pyridin-2-yl)-6,7-dihydro-1H-pyrazolo[4,3-f][1,4]oxazepin-4(5H)-one]: the EC50 was 25.1 nM. Also, under setting [1], the maximum response (Emax) turned out to be 89%.

On to `O=C1NCCc2c1c(CO)nn2-c1cc(Cc2cc(F)cc(C(F)(F)F)c2)ccn1` [Example 113, 1-(4-(3-fluoro-5-(trifluoromethyl)benzyl)pyridin-2-yl)-3-(hydroxymethyl)-1,5,6,7-tetrahydro-4H-pyrazolo[4,3-c]pyridin-4-one], for which the EC50 is 15.8 nM. Under setting [1], the maximal response (Emax) was found to be 95%.

In the case of `O=C1NCCc2c1cnn2-c1ccnc(Cc2cc(Cl)cc(Cl)c2)c1` [Example 31, 1-(2-(3,5-dichlorobenzyl)pyridin-4-yl)-1,5,6,7-tetrahydro-4H-pyrazolo[4,3-c]pyridin-4-one], a half-maximal response (EC50) required 126 nM. The molecule further returned an Emax under setting [1] of 95%.

The molecule `O=C1NCCc2c1cnn2-c1cc(Cc2cc(F)cc(C(F)F)c2)ccn1` [Example 102, 1-(4-(3-(difluoromethyl)-5-fluorobenzyl)pyridin-2-yl)-1,5,6,7-tetrahydro-4H-pyrazolo[4,3-c]pyridin-4-one] had an EC50 of 10 nM. For the same molecule, the Emax under setting [1] is 98%.

`Cc1nn(-c2ccnc(Cc3cc(Cl)c(F)c(C(F)(F)F)c3)c2)c2c1C(=O)NCC2` [Example 88, 1-(2-(3-chloro-4-fluoro-5-(trifluoromethyl)benzyl)pyridin-4-yl)-3-methyl-1,5,6,7-tetrahydro-4H-pyrazolo[4,3-c]pyridin-4-one] showed an EC50 of 5.01 nM. Moreover, the Emax under setting [1] was found to be 100%.

Turning to `O=C1NOCc2c1cnn2-c1cc(Cc2cc(F)cc(C(F)(F)F)c2)ccn1` [Example 47, 1-(4-(3-fluoro-5-(trifluoromethyl)benzyl)pyridin-2-yl)-1,7-dihydropyrazolo[4,3-c/][1,2]oxazin-4(5H)-one], the EC50 is 79.4 nM. Besides, under setting [1], the Emax was determined as 81%.

The molecule `O=C1NCCc2c1cnn2-c1ccnc(Cc2ccc(Cl)cc2)c1` [Example 19, 1-(2-(4-chlorobenzyl)pyridin-4-yl)-1,5,6,7-tetrahydro-4H-pyrazolo[4,3-c]pyridin-4-one] showed an Emax of 73% and an EC50 of 631 nM.

For `Cc1nn(-c2ccnc(Cc3cc(F)c(Cl)c(C(F)(F)F)c3)c2)c2c1C(=O)NCC2` [Example 87, 1-(2-(4-chloro-3-fluoro-5-(trifluoromethyl)benzyl)pyridin-4-yl)-3-methyl-1,5,6,7-tetrahydro-4H-pyrazolo[4,3-c]pyridin-4-one], the EC50 was 6.31 nM. The molecule further displayed an Emax under setting [1] of 95%.

`O=C1NCCc2nn(-c3cc(Cc4cccc(C(F)(F)F)c4)ccn3)cc21` [Example 8, 2-(4-(3-(trifluoromethyl)benzyl)pyridin-2-yl)-2,5,6,7-tetrahydro-4H-pyrazolo[4,3-c]pyridin-4-one]: the EC50 was 316 nM. Under setting [1], this molecule displayed an Emax of 75%.
